Reference: publication PMC11327220 (Bioscience Reports, 2024)
“And” between values parts separate entries of the source, which are not always exact repeats. Equal values may be shown once. Read-outs that look alike come from different tables or passages of the source.

Key:
[1] = molecular target: T1, SARS-CoV-2 3CLpro (Severe acute respiratory syndrome coronavirus 2, UniProt P0DTD1); assay: biochemical; type: biochemical
[2] = molecular target: 3CLpro (Severe acute respiratory syndrome coronavirus 2, UniProt P0DTD1); type: binding, SARS-CoV-2
[3] = molecular target: MERS 3CLpro (Middle East respiratory syndrome-related coronavirus, UniProt K9N7C7); assay: biochemical
Sequence of MERS 3CLpro (K9N7C7 3248-3553 limits assumed): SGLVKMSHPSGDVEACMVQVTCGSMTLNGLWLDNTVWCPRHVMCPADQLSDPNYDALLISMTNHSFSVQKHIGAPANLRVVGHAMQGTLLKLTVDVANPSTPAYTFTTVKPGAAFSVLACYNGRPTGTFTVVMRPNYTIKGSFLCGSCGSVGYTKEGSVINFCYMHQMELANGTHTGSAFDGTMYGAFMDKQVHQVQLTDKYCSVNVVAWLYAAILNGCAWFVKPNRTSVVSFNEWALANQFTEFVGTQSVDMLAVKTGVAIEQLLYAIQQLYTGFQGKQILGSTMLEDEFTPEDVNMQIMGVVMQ

[4] = molecular target: SARS-CoV-1 3CLpro (Severe acute respiratory syndrome coronavirus, UniProt P0C6X7); assay: biochemical
[5] = molecular target: T1, SARS-CoV-2 3CLpro; assay: Inhibition kinetics of luteolin (competitive inhibition fit); type: biochemical
[6] = system: SARS-CoV-2 (ancestral strain A2.2); assay: microbe, parasite or virus in culture; type: cell-based; conditions: Severe acute respiratory syndrome coronavirus 2, HEK-293T, read-out: IC50 in the live virus assay
[7] = read-out: IC50 of micronutrients against 3CLpro
[8] = additive in the absence of luteolin
[9] = one additive: 100 µM luteolin, 3.5 mM magnesium, 2.3 mM manganese, 0.3 mM zinc or 0.3 mM vitamin C, free enzyme 133 ± 4
[10] = 2.3 mM manganese, 3.5 mM magnesium or 0.3 mM vitamin C, no luteolin
[11] = 0.3 mM vitamin C in the presence of 100 µM luteolin
[12] = versus luteolin without micronutrients

Structure (SMILES): [Ca+2].[Cl-].[Cl-] [CaCl2]
- IC50 [1, 7]: 1900 ± 200 µM

Structure (SMILES): O=c1c2ccccc2[se]n1-c1ccccc1 [Ebselen, reference compound]
- percentage inhibition of SARS-CoV-2 3CLpro [1]: completely inhibits

Structure (SMILES): [Cl-].[Cl-].[Mg+2] [MgCl2]
- Tm of the first transition (Tm1) of 3CLpro [2]: 35 ± 0.3 °C
- Tm of the second transition (Tm2) of 3CLpro [2]: 45 ± 0.5 °C
- fold increase of ΔHcal over free 3CLpro [2, 8]: 2 fold
- calorimetric enthalpy (ΔHcal) of unfolding of 3CLpro [2, 9]: 63.1 ± 3.59 kcal/mol
- IC50 [1, 7]: 24000 ± 1100 µM

Structure (SMILES): [Cl][Mn][Cl] [MnCl2]
- Tm of the first transition (Tm1) of 3CLpro [2, 10]: 35 ± 0.3 °C
- Tm of the second transition (Tm2) of 3CLpro [2, 10]: 45 ± 0.5 °C
- fold increase of ΔHcal over free 3CLpro [2, 8]: 3 fold
- calorimetric enthalpy (ΔHcal) of unfolding of 3CLpro [2, 9]: 85.1 ± 10.8 kcal/mol
- IC50 [1, 7]: 2300 ± 200 µM

Structure (SMILES): O=C1O[C@H]([C@@H](O)CO)C(O)=C1O [Vitamin C, L-ascorbate]
- Tm of the first transition (Tm1) of 3CLpro [2]: 34 °C
- Tm of the second transition (Tm2) of 3CLpro [2]: 45 ± 0.7 °C
- calorimetric enthalpy (ΔHcal) of unfolding of 3CLpro [2, 11]: 307.8 ± 32.58 kcal/mol
- fold increase of ΔHcal over free 3CLpro [2, 11]: 10 fold
- Tm of the late transition (Tm3) of 3CLpro ([2]; 0.3 mM vitamin C, no luteolin): 56 ± 0.2 °C
- fold increase of ΔHcal over free 3CLpro [2, 8]: 8 fold
- calorimetric enthalpy (ΔHcal) of unfolding of 3CLpro [2, 9]: 247.1 ± 13.9 kcal/mol
- IC50 [1]: 800 ± 20 µM

Structure (SMILES): [Cl-].[Cl-].[Zn+2] [ZnCl2]
- decrease of Tm compared with apo-3CLpro [2]: approximately 6 °C
- melting point (Tm) of 3CLpro, single transition [2]: 41 ± 0.4 °C
- fold increase of ΔHcal over free 3CLpro [2, 8]: 4 fold
- calorimetric enthalpy (ΔHcal) of unfolding of 3CLpro [2, 9]: 108 ± 12 kcal/mol
- IC50 [1, 7]: 1100 ± 200 µM

Structure (SMILES): O=c1cc(-c2ccc(O)c(O)c2)oc2cc(O)cc(O)c12 [luteolin, 2-(3,4-dihydroxyphenyl)-5,7-dihydroxy-4H-chromen-4-one]
- melting point (Tm) of 3CLpro, single transition ([2]; 25 μM 3CLpro with 100 µM luteolin or 0.3 mM zinc, apo-3CLpro 46.7 ± 0.1): 46.7 ± 0.1 °C
- effect of adding luteolin on the thermograms of 3CLpro in the presence of metal ions ([2]; 100 µM luteolin with metal ions): minimal effect
- calorimetric enthalpy (ΔHcal) of unfolding of 3CLpro [2, 9]: 24.1 ± 3.59 kcal/mol
- IC50 [3]: 388 ± 59 µM
- IC50 [4]: 711 ± 130 µM
- Ki [5]: 93 ± 12 µM
- fold increase of Ka over Km of the peptide substrate in the absence of inhibitor ([5]; in the presence of luteolin): ~6 fold
- apparent Michaelis constant (Ka) for the peptide substrate in the presence of luteolin ([5]; luteolin 40-400 µM, Km without inhibitor 66 ± 7 µM): 406 ± 48 µM
- inhibition pattern ([5]; luteolin versus the peptide substrate): competitive inhibition
- fold decrease of the IC50 of luteolin with the combination of vitamin C and magnesium [1]: 3 fold
- fold decrease of the IC50 of luteolin with the combination of zinc and magnesium [1]: 2 fold
- IC50 ([1]; 2 µM 3CLpro, 60 µM peptide substrate, absence of micronutrients): 78 µM
- inhibition at 25 µM ([1]; read-out: percentage inhibition of SARS-CoV-2 3CLpro): 41%
- fold decrease of the IC50 of luteolin in the presence of magnesium [1, 12]: 1.7 fold and 2 fold
- fold decrease of the IC50 of luteolin in the presence of magnesium, zinc, and vitamin C [1, 12]: 10 fold
- fold increase of the IC50 of luteolin in the presence of calcium [1, 12]: 2 fold
- fold increase of the IC50 of luteolin in the presence of zinc [1, 12]: 2 fold
- IC50 [6]: 90 ± 11 µM
